# Assay: Solubility of compound of Formula 1 in various solvents (excess compound, shaking, HPLC)
# Assay type: physicochemical
# Details: Ethanol; 25° C., 24 hours
# Procedure: Since solvent that gives high solubility can dissolve the compound of Formula 1 in a small amount compared to a solvent that gives low solubility, in particular, when formulated into an external preparation of skin, a relatively higher amount of water may be contained, so that the feeling of use can be further enhanced.
# An excessive amount of the compound of Formula 1 was added to 1 mL of each solvent shown in Table 1 below, and stirred at 25° C. at 200 rpm for 24 hours while shaking
# (Shaking incubator, SI 600R, JEIO TECH, Korea). Thereafter, centrifugation was performed at 10,000 rpm for 10 minutes, and the supernatant was filtered using a membrane filter (0.2 μm), diluted appropriately with methanol, and analyzed by HPLC.
smiles,measurement,value
"CCCc1nc(C(F)(F)F)ccc1/C=C/C(=O)N[C@H](C)c1cc(F)c(NS(C)(=O)=O)c(F)c1 [compound of Formula 1, (R)-N-[1-(3,5-difluoro-4-methanesulfonylamino-phenyl)-ethyl]-3-(2-propyl-6-trifluoromethyl-pyridin-3-yl)-acrylamide]",Solubility,75.32 mg/mL

# From patent US12059412B2, “Pharmaceutical composition containing (R)-N-[1-(3,5-difluoro-4-methanesulfonylamino-phenyl)-ethyl]-3-(2-propyl-6-trifluoromethylpyridin-3-yl)-acrylamide and method for inhibiting crystal formation thereof” (Amorepacific Corporation, priority 2018, dated 2024)
